Measurements taken from ChEMBL document CHEMBL4334506, “Xylodon flaviporus-Derived Drimane Sesquiterpenoids That Inhibit Osteoclast Differentiation” (J Nat Prod, 2019).

What was measured:
[1] = system: BMDM; experiment: Inhibition of M-CSF/RANKL-induced osteoclast differentiation in C57BL/6 mouse bone marrow macrophage after 4 days by TRAP-staining based microscopic analysis; assay type: functional, cell-based
[2] = Inhibition of M-CSF/RANKL-induced osteoclast differentiation in C57BL/6 mouse bone marrow macrophage assessed as reduction in multinucleated TRAP+ cells after 4 days by TRAP-staining based microscopic analysis; assay type: functional, cell-based; details: C57BL/6, BMDM, 96 h
[3] = system: BMDM; experiment: Cytotoxicity against M-CSF stimulated C57BL/6 mouse bone marrow macrophage cells at 1 to 10 uM after 4 days by XTT assay; assay type: cell-based; details: 96 h
[4] = system: BMDM; experiment: Cytotoxicity against M-CSF stimulated C57BL/6 mouse bone marrow macrophage cells at 3 to 30 uM after 4 days by XTT assay; assay type: cell-based; details: 96 h

IC50 [2] | Compound | inhibition [1] | Activity [3] | Activity [4]
0.9 µM | CC1(C)CCC[C@]2(C)C3=C(COC3=O)C[C@H](OC(=O)/C=C/c3ccc(O)cc3)[C@@H]12 | Dose-dependent effect | Non-Toxic | –
10.1 µM | CO[C@@H]1OC(=O)C2=C[C@H](OC(=O)/C=C/c3ccccc3)[C@H]3C(C)(C)CCC[C@]3(C)[C@H]21 | Dose-dependent effect | Non-Toxic | –
2.1 µM | CC1(C)CCC[C@]2(C)[C@@H]3C(=C[C@H](OC(=O)/C=C/c4ccc(O)cc4)[C@@H]12)CO[C@H]3O | Dose-dependent effect | Non-Toxic | –
10.7 µM | CC1(C)CCC[C@]2(C)[C@@H]3C(=C[C@H](OC(=O)/C=C/c4ccccc4)[C@@H]12)CO[C@H]3O | Dose-dependent effect | – | Non-Toxic
1.6 µM | CC1(C)CCC[C@]2(C)C3=C(COC3=O)C[C@H](OC(=O)/C=C/c3ccccc3)[C@@H]12 | Dose-dependent effect | Non-Toxic | –
8.5 µM | CC1(C)CCC[C@]2(C)[C@H](O)C(C=O)=C[C@H](OC(=O)/C=C/c3ccccc3)[C@@H]12 | Dose-dependent effect | Non-Toxic | –
